Measured values published in US20260041683A1, “Compounds with Anti-Acinetobacter Baumannii Activity” (University of Kentucky Research Foundation, priority 2022, published 2026).
≈ marks a conversion by molar mass, not a printed value.

What was measured:
Ab ATCC 19606 (strain I) = assay: MIC determination (double dilution, Mueller-Hinton broth); format: cell-based, Acinetobacter baumannii; settings: Acinetobacter baumannii, ATCC19606; Table 1; control strain; read-out: MIC Ab ATCC 19606
Procedure: All bacterial strains listed above were stored at −80° C. All strains were streaked on Mueller-Hinton (MH) plates and allowed to grow at 37° C. overnight. […] The resulting culture was diluted 1:1000 and added to the prepared serially doubly diluted compound solutions in 96-well plates. For M. smegmatis, a 1:100 dilution of the bacteria was done in MH. All MIC values were determined using 96-well plates with low evaporation seals at least in duplicate. For each row, one well was reserved for sterile control (which consisted of 200 μL of MH medium) and another well was reserved for growth control (which consisted of 100 μL of MH medium seeded with 100 μL of bacterial culture).
(§1) Minimum inhibitory concentrations (MIC) of all compounds from the series were measured in liquid cultures of different Ab strains by a double-dilution method in Mueller-Hinton broth. Initially, the activity of all 46 compounds against Ab ATCC 19606 (a control strain) and Ab ATCC BAA1605 (a multidrug-resistant strain) (Table 1; data shown for 27 representative compounds) was measured.

[1] = test system: Ab ATCC BAA1605 (strain J, multidrug-resistant); assay: MIC determination; format: cell-based; settings: Acinetobacter baumannii; Table 1; multidrug-resistant strain; read-out: MIC Ab ATCC BAA 1605
Procedure: (§2) All bacterial strains listed above were stored at −80° C. All strains were streaked on Mueller-Hinton (MH) plates and allowed to grow at 37° C. overnight. Enough colonies were scraped from the plate and suspended in MH broth with vortexing to reach an attenuance at 600 nm (OD600) of ˜0.5. The resulting culture was diluted 1:1000 and added to the prepared serially doubly diluted compound solutions in 96-well plates. For M. smegmatis, a 1:100 dilution of the bacteria was done in MH. All MIC values were determined using 96-well plates with low evaporation seals at least in duplicate. For each row, one well was reserved for sterile control (which consisted of 200 μL of MH medium) and another well was reserved for growth control (which consisted of 100 μL of MH medium seeded with 100 μL of bacterial culture).
as §1

[2] = test system: all 43 strains of A. baumannii (41 CDC strains and 2 ATCC strains); assay: MIC value statistics for all A. baumannii strains; format: cell-based, Acinetobacter baumannii; settings: of 43 A. baumannii strains
Procedure: as §2, with “[…].” for “For M. smegmatis, a 1:100 dilution of the bacteria was done in MH. All MIC values were determined using 96-well plates with low evaporation seals at least in duplicate.”
Having established that the observed activity is selective to A. baumannii, all synthesized compounds were tested against a panel of antibiotic resistant A. baumannii from the Antimicrobial Resistant (AR) Isolate Bank from the CDC along with strains I and J (Table Si). […]. Based on this statistical analysis, the best compound is 5e followed closely by 3e.

SMILES	MIC (Ab ATCC 19606 (strain I))	MIC [1]	number of compound/strain combinations with MIC value 0.25 μg/mL [2]	number of compound/strain combinations with MIC value 0.5 μg/mL [2]	number of compound/strain combinations with MIC value ≤0.125 μg/mL [2]	number of compound/strain combinations with MIC value 1 μg/mL [2]	number of compound/strain combinations with MIC value 2 μg/mL [2]	number of compound/strain combinations with MIC value >64 μg/mL [2]
O=C(NNc1ccc(Cl)cc1)c1nc(F)ccc1F [Compound 8e]	0.125 µg/mL (≈ 0.441 µM)	0.0625 µg/mL (≈ 0.22 µM)	34	2	7			
O=C(NNc1ccc(Cl)cc1)c1cnc2ccccc2n1 [Compound 13e]	0.5 µg/mL (≈ 1.67 µM)	0.25 µg/mL (≈ 0.837 µM)	9	22		12		
O=C(NNc1cccc(F)c1)c1ccccn1 [Compound 2a]	2 µg/mL (≈ 8.65 µM)	0.5 µg/mL (≈ 2.16 µM)	10	18	2	10	3	
O=C(NNc1cccc(F)c1)c1ncc(F)cc1F [Compound 7a]			5	19	1	18		
O=C(NNc1ccc(Cl)cc1)c1cnccn1 [Compound 9e]			8	19	1	15		
O=C(NNC1CCCCC1)c1cnccn1 [Compound 9h]								43
O=C(NNc1cccc(F)c1)c1ccc(Br)cn1 [Compound 4a]	0.5 µg/mL (≈ 1.61 µM)	0.5 µg/mL (≈ 1.61 µM)	2	8		19	14	
O=C(NNC1CCCCC1)c1ccc(F)cc1F [Compound 1h]								43
O=C(NNc1cccc(F)c1)c1ccc(F)cc1F [Compound 1a]			3	26	1	9	4	
CCOC(=O)CNNC(=O)c1ccc(F)cn1 [Compound 3g]	> 64 µg/mL	> 64 µg/mL						43
O=C(NNc1cccc(F)c1)c1cccnc1 [Compound 11a]	0.25 µg/mL (≈ 1.08 µM)	0.5 µg/mL (≈ 2.16 µM)	11	26	2	4		
CCOC(=O)CNNC(=O)c1cccc(F)n1 [Compound 5g]	> 64 µg/mL	> 64 µg/mL						43
O=C(NNc1cccc(F)c1)c1ccco1 [Compound 15a]			21	16	6			
O=C(NNc1cccc(F)c1)c1cnc2ccccc2n1 [Compound 13a]			6	19		15	3	
O=C(NNc1cccc(F)c1)c1cc2ccccc2[nH]1 [Compound 14a]	0.25 µg/mL (≈ 0.928 µM)	0.25 µg/mL (≈ 0.928 µM)	13	25		5		
O=C(NNc1cccc(F)c1)c1ccccc1 [Compound 10a]	0.25 µg/mL (≈ 1.09 µM)	0.5 µg/mL (≈ 2.17 µM)	19	17	6	1		
CCOC(=O)CNNC(=O)c1cnccn1 [Compound 9g]								43
O=C(NNc1cccc(F)c1)c1nc(F)ccc1F [Compound 8a]			11	12	2	18		
O=C(NNc1ccc(Cl)cc1)c1cccnc1 [Compound 11e]			15	19	5	4		
O=C(NNc1cccc(F)c1)c1cccc(F)n1 [Compound 5a]			1	8		25	9	
CCC(=O)NNc1cccc(F)c1 [Compound 16a]			10	15	4	14		
CCOC(=O)CNNC(=O)c1ccccn1 [Compound 2g]								43
CCOC(=O)CNNC(=O)c1ccc(F)cc1F [Compound 1g]								43
O=C(NNc1cccc(F)c1)c1cccc(Br)n1 [Compound 6a]	0.5 µg/mL (≈ 1.61 µM)	0.5 µg/mL (≈ 1.61 µM)	4	16		19	4	
O=C(NNC1CCCCC1)c1cccnc1 [Compound 11h]	> 64 µg/mL	> 64 µg/mL						43
O=C(NNc1ccc(Cl)cc1)c1ncc(F)cc1F [Compound 7e]	0.125 µg/mL (≈ 0.441 µM)	0.125 µg/mL (≈ 0.441 µM)	28	7	8			
